# Test results as given in the supplement of paper PMC10307832.
# What was measured:
# Assay in all cases: relative viability (nuclei count vs DMSO), 5 days (fraction); higher = more cells survive
# COR-L23 = system: COR-L23
# How it was run: (§1)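 Relative viability is defined as nuclei in treated wells over nuclei in vehicle wells. Duplicate plates were run and medians reported. Lung cancer cell lines in 1536-well plates were dosed by pin tool one day after seeding, with one drug or with a fixed anchor-drug dose plus five library-drug doses (not always all listed) in √10 steps, and nuclei were counted after 5 days.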
# NCI-H2085 = system: NCI-H2085
# How it was run: as §1
# NCI-H1563 = system: NCI-H1563
# How it was run: as §1
# LU99A = system: LU99A
# How it was run: as §1
# NCI-H1395 = system: NCI-H1395
# How it was run: as §1
# NCI-H1793 = system: NCI-H1793
# How it was run: as §1
# HCC-827 = system: HCC-827
# How it was run: as §1
# NCI-H1944 = system: NCI-H1944
# How it was run: as §1
# H3255 = system: H3255
# How it was run: as §1
# LCLC-103H = system: LCLC-103H
# How it was run: as §1
# NCI-H650 = system: NCI-H650
# How it was run: as §1
# NCI-H520 = system: NCI-H520
# How it was run: as §1
# NCI-H1651 = system: NCI-H1651
# How it was run: as §1
# NCI-H2023 = system: NCI-H2023
# How it was run: as §1
# NCI-H838 = system: NCI-H838
# How it was run: as §1
# EMC-BAC-2 = system: EMC-BAC-2
# How it was run: as §1
# NCI-H2405 = system: NCI-H2405
# How it was run: as §1
# SK-MES-1 = system: SK-MES-1
# How it was run: as §1
# EPLC-272H = system: EPLC-272H
# How it was run: as §1
# NCI-H2087 = system: NCI-H2087
# How it was run: as §1
# HCC-44 = system: HCC-44
# How it was run: as §1
smiles,measurement,setting,value
COc1cc2nccc(Oc3ccc(NC(=O)Nc4cc(C)on4)c(Cl)c3)c2cc1OC [Tivozanib] + Cc1nc(NC(=O)N2CCC[C@H]2C(N)=O)sc1-c1ccnc(C(C)(C)C(F)(F)F)c1 [Alpelisib] (partner 2 µM),relative viability,COR-L23; first compound 0.005 µM,0.687
same,relative viability,COR-L23; first compound 0.01581 µM,0.778
same,relative viability,COR-L23; first compound 0.05 µM,0.931
same,relative viability,COR-L23; first compound 0.1581 µM,0.709
same,relative viability,COR-L23; first compound 0.5 µM,0.582
same,relative viability,NCI-H2085; first compound 0.005 µM,1.02
same,relative viability,NCI-H2085; first compound 0.01581 µM,0.978
same,relative viability,NCI-H2085; first compound 0.05 µM,0.905
same,relative viability,NCI-H2085; first compound 0.1581 µM,0.963
same,relative viability,NCI-H2085; first compound 0.5 µM,0.642
same,relative viability,NCI-H1563; first compound 0.005 µM,0.926
same,relative viability,NCI-H1563; first compound 0.01581 µM,0.976
same,relative viability,NCI-H1563; first compound 0.05 µM,0.972
same,relative viability,NCI-H1563; first compound 0.1581 µM,0.843
same,relative viability,NCI-H1563; first compound 0.5 µM,0.835
same,relative viability,LU99A; first compound 0.005 µM,0.484
same,relative viability,LU99A; first compound 0.01581 µM,0.555
same,relative viability,LU99A; first compound 0.05 µM,0.521
same,relative viability,LU99A; first compound 0.5 µM,0.469
same,relative viability,NCI-H1395; first compound 0.005 µM,0.951
same,relative viability,NCI-H1395; first compound 0.01581 µM,1.08
same,relative viability,NCI-H1395; first compound 0.05 µM,1.01
same,relative viability,NCI-H1395; first compound 0.1581 µM,1.05
same,relative viability,NCI-H1395; first compound 0.5 µM,0.91
same,relative viability,NCI-H1793; first compound 0.005 µM,0.643
same,relative viability,NCI-H1793; first compound 0.01581 µM,0.617
same,relative viability,NCI-H1793; first compound 0.05 µM,0.729
same,relative viability,NCI-H1793; first compound 0.5 µM,0.705
same,relative viability,HCC-827; first compound 0.005 µM,0.902
same,relative viability,HCC-827; first compound 0.01581 µM,0.992
same,relative viability,HCC-827; first compound 0.05 µM,1.04
same,relative viability,HCC-827; first compound 0.1581 µM,0.98
same,relative viability,HCC-827; first compound 0.5 µM,1.02
same,relative viability,NCI-H1944; first compound 0.005 µM,0.889
same,relative viability,NCI-H1944; first compound 0.01581 µM,0.902
same,relative viability,NCI-H1944; first compound 0.05 µM,0.885
same,relative viability,NCI-H1944; first compound 0.1581 µM,0.733
same,relative viability,NCI-H1944; first compound 0.5 µM,0.912
same,relative viability,H3255; first compound 0.005 µM,0.727
same,relative viability,H3255; first compound 0.01581 µM,0.716
same,relative viability,H3255; first compound 0.05 µM,0.684
same,relative viability,H3255; first compound 0.1581 µM,0.689
same,relative viability,H3255; first compound 0.5 µM,0.615
same,relative viability,LCLC-103H; first compound 0.005 µM,0.951
same,relative viability,LCLC-103H; first compound 0.01581 µM,0.938
same,relative viability,LCLC-103H; first compound 0.05 µM,1.04
same,relative viability,LCLC-103H; first compound 0.1581 µM,0.997
same,relative viability,LCLC-103H; first compound 0.5 µM,1.01
same,relative viability,NCI-H650; first compound 0.005 µM,1.06
same,relative viability,NCI-H650; first compound 0.01581 µM,1.13
same,relative viability,NCI-H650; first compound 0.05 µM,1.1
same,relative viability,NCI-H650; first compound 0.1581 µM,1.02
same,relative viability,NCI-H650; first compound 0.5 µM,0.967
same,relative viability,NCI-H520; first compound 0.005 µM,0.773
same,relative viability,NCI-H520; first compound 0.01581 µM,0.847
same,relative viability,NCI-H520; first compound 0.05 µM,1.02
same,relative viability,NCI-H520; first compound 0.1581 µM,0.74
same,relative viability,NCI-H520; first compound 0.5 µM,0.714
same,relative viability,NCI-H1651; first compound 0.005 µM,0.985
same,relative viability,NCI-H1651; first compound 0.01581 µM,0.842
same,relative viability,NCI-H1651; first compound 0.05 µM,0.781
same,relative viability,NCI-H1651; first compound 0.1581 µM,0.879
same,relative viability,NCI-H1651; first compound 0.5 µM,0.889
same,relative viability,NCI-H2023; first compound 0.005 µM,0.553
same,relative viability,NCI-H2023; first compound 0.01581 µM,0.578
same,relative viability,NCI-H2023; first compound 0.05 µM,0.634
same,relative viability,NCI-H2023; first compound 0.1581 µM,0.589
same,relative viability,NCI-H2023; first compound 0.5 µM,0.61
same,relative viability,NCI-H838; first compound 0.005 µM,0.984
same,relative viability,NCI-H838; first compound 0.01581 µM,1.04
same,relative viability,NCI-H838; first compound 0.05 µM,1.04
same,relative viability,NCI-H838; first compound 0.5 µM,1.03
same,relative viability,EMC-BAC-2; first compound 0.005 µM,0.722
same,relative viability,EMC-BAC-2; first compound 0.01581 µM,0.736
same,relative viability,EMC-BAC-2; first compound 0.05 µM,0.753
same,relative viability,EMC-BAC-2; first compound 0.1581 µM,0.696
same,relative viability,EMC-BAC-2; first compound 0.5 µM,0.774
same,relative viability,NCI-H2405; first compound 0.005 µM,0.776
same,relative viability,NCI-H2405; first compound 0.01581 µM,0.878
same,relative viability,NCI-H2405; first compound 0.05 µM,0.823
same,relative viability,NCI-H2405; first compound 0.1581 µM,0.737
same,relative viability,NCI-H2405; first compound 0.5 µM,0.641
same,relative viability,SK-MES-1; first compound 0.005 µM,0.763
same,relative viability,SK-MES-1; first compound 0.01581 µM,1.08
same,relative viability,SK-MES-1; first compound 0.05 µM,0.876
same,relative viability,SK-MES-1; first compound 0.1581 µM,0.869
same,relative viability,SK-MES-1; first compound 0.5 µM,0.857
same,relative viability,EPLC-272H; first compound 0.005 µM,0.964
same,relative viability,EPLC-272H; first compound 0.01581 µM,0.918
same,relative viability,EPLC-272H; first compound 0.05 µM,1.05
same,relative viability,EPLC-272H; first compound 0.1581 µM,0.723
same,relative viability,EPLC-272H; first compound 0.5 µM,0.862
same,relative viability,NCI-H2087; first compound 0.005 µM,1.04
same,relative viability,NCI-H2087; first compound 0.01581 µM,1.03
same,relative viability,NCI-H2087; first compound 0.05 µM,1.18
same,relative viability,NCI-H2087; first compound 0.1581 µM,0.886
same,relative viability,NCI-H2087; first compound 0.5 µM,1.04
same,relative viability,HCC-44; first compound 0.005 µM,0.815
same,relative viability,HCC-44; first compound 0.01581 µM,0.758
same,relative viability,HCC-44; first compound 0.05 µM,0.803
same,relative viability,HCC-44; first compound 0.1581 µM,0.756
same,relative viability,HCC-44; first compound 0.5 µM,0.831
